For the assay, the system named is HDAC. Description: Fluor de Lys fluorometric assay of HDAC activity in PC3 cells. It counts as cell-based, human. As to conditions: 24 h. How it is done:
Briefly 20×10^3 cells/well were seeded in 96 well plates and incubated for 24 h with (a) 1 mM BLT (b) FSAHA at 2, 5, 10 μM (c) SAHA at 2, 5, 10 μM (d) FSAHA at 2, 5, 7, 8, 9, 10 μM in the presence of 1 mM BLT (e) FSAHA at 2, 5, 7, 8, 9, 10 μM in the presence of vehicle (DMSO). The Fluor de Lys substrate was then added for 1 h, medium removed, cells rinsed with PBS and incubated for 10 minutes with the Fluor-de-Lys developer, and fluorescence read at 460 nm using the Tecan microplate reader as above. Results were normalized to cell density as determined using the WST-1 assay in the same 96 well plate.

Consider `O=C(CCCCCCC(=O)Nc1ccccc1)NO` [SAHA, suberoylanilide hydroxamic acid, reference compound], for which the “HDAC activity (relative to controls)” value runs as follows: (2 μM) 84±10%; (5 μM) 51±3%; (10 μM) 29±3%.

The record behind these values is patent US20100062465A1, “Detection of Histone Deacetylase Inhibition” (priority 2006, published 2010).
